Results on 4 compounds are retold here after EP0073143B1, “Novel complex amido and imido derivatives of carboxyalkyl peptides and thioethers and ethers of peptides” (priority 1981, dated 1983).

A short description of data set [1]: Loss of activity of an aqueous solution on standing. It is filed as physicochemical. The following applies: fresh aqueous solution 1 mg per ml, pH of about 8, standing for as little as 30 minutes.
The subject of the next data set is man. The following applies: 13 patients treated, all biopsies; Hoorntje et al.; cited from earlier work.
Data set [2] deals with T1, human plasma angiotensin converting enzyme (Homo sapiens, UniProt P12821).
T1 construct: partially-purified human plasma angiotensin converting enzyme; from tissue; host or cells: human plasma
T1 sequence (P12821 30-1232 limits assumed): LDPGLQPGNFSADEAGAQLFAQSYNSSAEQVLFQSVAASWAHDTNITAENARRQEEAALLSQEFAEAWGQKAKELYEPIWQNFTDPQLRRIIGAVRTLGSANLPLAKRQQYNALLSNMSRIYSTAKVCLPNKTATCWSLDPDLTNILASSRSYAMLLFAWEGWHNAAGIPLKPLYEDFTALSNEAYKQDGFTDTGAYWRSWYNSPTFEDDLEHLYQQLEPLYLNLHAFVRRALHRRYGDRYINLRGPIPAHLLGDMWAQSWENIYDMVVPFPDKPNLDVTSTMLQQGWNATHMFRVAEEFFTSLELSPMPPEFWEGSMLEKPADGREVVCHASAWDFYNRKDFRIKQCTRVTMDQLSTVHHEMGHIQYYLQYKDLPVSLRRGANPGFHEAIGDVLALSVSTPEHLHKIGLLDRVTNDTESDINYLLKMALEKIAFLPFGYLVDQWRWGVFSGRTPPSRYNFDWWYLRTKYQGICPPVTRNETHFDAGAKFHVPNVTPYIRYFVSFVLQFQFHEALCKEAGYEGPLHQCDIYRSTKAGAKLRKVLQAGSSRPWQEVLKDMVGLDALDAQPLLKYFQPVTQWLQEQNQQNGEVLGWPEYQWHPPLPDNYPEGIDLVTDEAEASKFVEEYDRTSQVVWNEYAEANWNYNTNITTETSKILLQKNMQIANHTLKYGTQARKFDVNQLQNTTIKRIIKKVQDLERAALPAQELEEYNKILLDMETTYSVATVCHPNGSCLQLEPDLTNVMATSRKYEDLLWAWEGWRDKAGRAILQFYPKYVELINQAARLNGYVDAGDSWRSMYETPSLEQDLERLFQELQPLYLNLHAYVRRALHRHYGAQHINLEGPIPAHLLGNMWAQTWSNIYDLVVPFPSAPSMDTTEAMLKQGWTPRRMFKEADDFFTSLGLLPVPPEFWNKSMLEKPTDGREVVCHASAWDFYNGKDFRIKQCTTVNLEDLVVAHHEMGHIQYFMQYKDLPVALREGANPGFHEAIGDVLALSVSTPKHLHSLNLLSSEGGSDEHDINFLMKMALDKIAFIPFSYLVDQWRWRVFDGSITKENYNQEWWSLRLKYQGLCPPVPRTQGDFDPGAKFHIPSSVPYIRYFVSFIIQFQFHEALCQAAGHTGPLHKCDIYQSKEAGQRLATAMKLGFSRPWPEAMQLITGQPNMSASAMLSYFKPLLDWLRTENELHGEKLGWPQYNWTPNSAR
Kind of data set: In vitro assay of inhibition of angiotensin converting enzyme. The format is biochemical. The following applies: [3H]benzoyl-Gly-His-Leu 80 nM, 37°C, 15 minutes; order of magnitude only; read-out: I50. On the procedure:
To this was added 100 microliters of buffered substrate [S], [^3H]benzoyl-[…], 80 nM (25 Ci/mmole). The reaction was started by adding 100 microliters of partially-purified human plasma angiotensin converting enzyme, or 100 microliters of buffer alone. The concentration of enzyme [E] used was that required to hydrolyze 8-12% of substrate when incubated at 37°C for 15 minutes. The scintillation vials and their contents were incubated at 37°C for 15 minutes, and the reactions were stopped by adding 200 microliters of 0.5M HCI to each vial. The radioactive reaction product, [^3H]benzoyl-Gly(hippuric acid), was separated from unhydrolyzed substrate by adding and mixing (by inversion) 3 ml of Ventrex Cocktail No. 1 (Ventrex Laboratories, Inc., Portland, Maine), a fluid disclosed in copending U.S. patent application No. 184,653, filed September 6, 1980. Extractable ^3H was quantified by liquid scintillation counting. Substrate, in c.p.m., was quantified by scintillation counting of a vial containing 100 μl of buffered substrate in 5 ml of RIAfluor (New England Nuclear). The reaction mixture containing all constituents except for inhibitor was termed the control (C). The reaction mixture lacking enzyme and inhibitor was called the blank (B). Reaction mixtures containing inhibitor (varied over the range of 10^-4-10^-12M) were called the test (T) reactions. Under the conditions of this assay, the reaction obeys first order enzyme kinetics, thus the concentration of inhibitor required to inhibit the rate of hydrolysis by half (150) approximate the Ki value. The results were estimated by use of the formula: [formula] where C = control c.p.m.; B = blank c.p.m.; [S] = substrate c.p.m. The factor 100 converts fractional substrate utilization into percentage utilization, and 1/15 minute connects to percentage substrate utilization/minute. Thus, [E] is enzyme activity in percentage substrate utilization/minute. By substituting T for C, hydrolysis rates are computed for the test reaction mixtures. By comparing a given test rate against the control rate, the degree of inhibition can be computed.

For data set [3], the system named is effects of 400 ng/kg of angiotensin I on mean arterial blood pressure. In words: Intravenous effectiveness: effect on the pressor response to angiotensin I in anesthetized rats. The following applies: de-iodo analog compared with the iodo compound. The format is in vivo. How it is done: Rats (190-290 g body weight) were fasted overnight and then anesthetized with intraperitoneal pentobarbital, 50-60 mg/kg. Tracheostomy was performed and the animals were ventilated mechanically. A cannula was inserted into a femoral vein for injection of angiotensin I, and a second cannula was inserted into a common carotid artery for direct measurement of arterial blood pressure. Heparin, 1,000 units, was injected via the femoral vein to prevent coagulation. Blood pressure was measured with a pressure transducer connected to a polygraph. The rats were injected with […] of angiotensin I in 20 µl of 0.9 g% NaCI, an amount of angiotensin I sufficient to raise mean arterial blood pressure by approximately 48 mm Hg.
After the responsiveness of a given rat to angiotensin I was established, the named compound at 0.5 micromole/kg (drug dissolved in 15 microliters of 0.9% NaCl) was given intravenously. At timed intervals, the effects of 400 ng/kg of angiotensin I on mean arterial blood pressure were tested. Results are shown below:
Experiments were carried out using rats according to Example 32.

In the case of `C[C@H](CS)C(=O)N1CCC[C@H]1C(=O)O` [SQ14225, D-3-mercapto-2-methylpropanoyl-L-proline], in data set [1], the “activity of aqueous solution upon standing” value is reported as “substantially less active”. Also, in the data set on man, the renal biopsies result is “evidence of immune complex deposition along the glomerular basement membranes”.

With `CC(N[C@@H](CCC(=O)Nc1ccc(I)cc1)C(=O)O)C(=O)N1CCC[C@H]1C(=O)O` (stereo partly drawn) [N-[L-1-carboxy-3-(carbo-4-iodo-anilide)propyl] Alanyl-L-Proline], the IC50 in data set [2] was ~1 nM. Also, the “increase of intravenous effectiveness on removal of iodine” value in data set [3] is recorded as “three-fold”. As to `CC(N[C@@H](CC(=O)N1CCCC1)C(=O)O)C(=O)N1CCC[C@H]1C(=O)O` (stereo partly drawn) [N-[L-1-carboxy-2-(carbopyrrolide)ethyl]-Alanyl-L-Proline], in data set [2], the IC50 is ~100 nM.

In the case of `CC(N[C@@H](CCC(=O)Nc1ccccc1)C(=O)O)C(=O)N1CCC[C@H]1C(=O)O` (stereo partly drawn) [N-[L-1-carboxy-3-(carbo-anilide)propyl]-Alanyl-L-Proline], in data set [2], the IC50 was ~1 nM.
